# Results: US20060270634A1, “Acetal phosphate-derived LPA mimics, PPARgamma activators, and autotaxin inhibitors” (priority 2005, published 2006)
# “Also recorded” adds a separate entry of the source. Read-outs that look alike come from different tables or passages of the source.
# Tests used:
# [1] = biological target: LPA2 (Homo sapiens, UniProt Q9HBW0); assay: Ca2+ transients in RH7777 cells expressing LPA2 (agonist / inhibition of LPA response)
# Description: (§2) Synthesized compounds were tested for induction and inhibition of LPA-induced calcium transients in rat hepatoma (RH7777) cell lines that stably express individual LPA1, LPA2, and LPA3 receptors as described in the literature using a FlexStation II automated fluorimeter (Molecular Devices, Sunnyvale, Calif.).
# [2] = biological target: T1, LPA3 (Homo sapiens, UniProt Q9UBY5); assay: Ca2+ transients in RH7777 cells expressing LPA3 (agonist / inhibition of LPA response); details: for LPA3 effect in words: Tables 2, 4, 6
# T1 sequence (Q9UBY5 1-353): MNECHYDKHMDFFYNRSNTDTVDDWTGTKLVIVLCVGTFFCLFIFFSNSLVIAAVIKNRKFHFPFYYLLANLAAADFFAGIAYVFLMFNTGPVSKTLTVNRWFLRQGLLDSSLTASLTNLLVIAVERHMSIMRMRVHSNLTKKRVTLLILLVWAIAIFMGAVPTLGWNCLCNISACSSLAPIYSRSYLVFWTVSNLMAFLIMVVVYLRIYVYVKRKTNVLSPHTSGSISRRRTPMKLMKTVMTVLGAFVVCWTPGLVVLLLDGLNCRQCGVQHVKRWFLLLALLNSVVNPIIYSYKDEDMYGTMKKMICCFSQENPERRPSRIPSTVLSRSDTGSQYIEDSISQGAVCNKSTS
# Description: as §2
# [3] = biological target: LPA1 (Homo sapiens, UniProt Q92633); assay: Ca2+ transients in RH7777 cells expressing LPA1 (agonist / inhibition of LPA response); details: for LPA1 effect in words: Tables 2, 4, 6; for Ki: read-out: LPA1 (Ki)
# Description: as §2
# [4] = system: PC3 cells; assay: Calcium mobilization response in PC3 cells; assay type: cell-based
# [5] = biological target: T2, PPARγ (Homo sapiens, UniProt P37231); assay: PPARγ activation, PPRE-Acox-Rluc reporter gene assay in CV1 cells; assay type: cell-based; details: for PPARγ activation in words: FIG. 9: 10 μM, 20 h; for PPARγ: Table 3
# T2 construct: expressed in transfected cells; host or cells: CV1 cells (African green monkey kidney)
# T2 sequence (P37231 1-505): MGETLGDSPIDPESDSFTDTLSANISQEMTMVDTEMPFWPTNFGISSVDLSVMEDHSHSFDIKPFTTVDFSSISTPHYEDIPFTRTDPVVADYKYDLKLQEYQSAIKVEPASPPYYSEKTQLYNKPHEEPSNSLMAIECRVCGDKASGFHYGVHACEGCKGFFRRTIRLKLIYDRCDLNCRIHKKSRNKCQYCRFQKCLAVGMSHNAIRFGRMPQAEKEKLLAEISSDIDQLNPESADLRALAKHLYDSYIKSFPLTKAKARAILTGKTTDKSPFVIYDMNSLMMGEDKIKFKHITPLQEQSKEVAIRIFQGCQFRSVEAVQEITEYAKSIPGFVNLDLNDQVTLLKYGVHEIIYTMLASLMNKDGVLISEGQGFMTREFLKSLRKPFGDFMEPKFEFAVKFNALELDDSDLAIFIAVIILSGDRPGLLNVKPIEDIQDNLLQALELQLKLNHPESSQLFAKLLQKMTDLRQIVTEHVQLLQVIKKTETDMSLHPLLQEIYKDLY
# Description: (§1) The biological effects of all synthesized compounds were testing using three high-throughput assays. First, intracellular calcium transients in rat hepatoma (RH777, an LPA receptor null cell) cell lines individually expressing either LPA1, LPA2, and LPA3 receptors were analyzed to evaluate compounds as agonists or antagonists. […] The PPRE-Acox-Rluc construct contains a renilla luciferase coding region, an acyl-CoA oxidase coding region, and a PPAR response element coding region. Third, inhibition of the lysophospholipase D autotoxin was determined using a previously described procedure.
# PPARγ is a lipid-activated transcription factor that belongs to the nuclear hormone superfamily. The inventors examined the activity of all synthesized Darmstoff analogs as PPARγ activators in vitro in CV1 cells using a PPRE-Acox-Rluc reporter gene assay. Rosiglitazone, a known PPARγ agonist, was used as a positive control for comparison.
# RH7777 cells, which lack LPA GPCR, were stably transfected with individual LPA1, LPA2 and LPA3 receptors and used for the in vitro screening.
# Unlike the enantiospecific responses compounds at LPA GPCR by APA analogs, there was no stereoselectivity observed in PPARγ activation by these analogs.
# [6] = biological target: lysophospholipase D (autotaxin, ATX) (Homo sapiens, UniProt Q13822); assay: Inhibition of lysophospholipase D autotaxin; assay type: biochemical; details: Table 3
# Description: as §1
# LPA is liberated as the product of lysophosphatidylcholine hyrolysis by the lysophospholipase D, autotaxin (ATX). The inventors screened Darmstoff analogs for ATX inhibition. As indicated by the data, all tested analogs are capable of ATX inhibition independently of their ligand properties at LPA GPCR and PPARγ.
# [7] = read-out: LPA3 IC50, 200 nM LPA
# Sequence of LPA2 (Q9HBW0 whole entry, species assumed): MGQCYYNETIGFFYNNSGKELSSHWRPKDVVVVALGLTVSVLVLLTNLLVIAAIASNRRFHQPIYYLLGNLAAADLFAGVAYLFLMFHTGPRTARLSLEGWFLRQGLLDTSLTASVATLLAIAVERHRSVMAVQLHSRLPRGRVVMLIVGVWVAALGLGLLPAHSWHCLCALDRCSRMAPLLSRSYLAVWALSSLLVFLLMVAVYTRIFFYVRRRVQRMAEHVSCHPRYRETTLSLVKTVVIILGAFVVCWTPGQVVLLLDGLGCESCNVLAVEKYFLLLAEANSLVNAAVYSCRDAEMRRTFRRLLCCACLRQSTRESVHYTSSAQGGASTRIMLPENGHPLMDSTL
# Sequence of LPA1 (Q92633 whole entry, species assumed): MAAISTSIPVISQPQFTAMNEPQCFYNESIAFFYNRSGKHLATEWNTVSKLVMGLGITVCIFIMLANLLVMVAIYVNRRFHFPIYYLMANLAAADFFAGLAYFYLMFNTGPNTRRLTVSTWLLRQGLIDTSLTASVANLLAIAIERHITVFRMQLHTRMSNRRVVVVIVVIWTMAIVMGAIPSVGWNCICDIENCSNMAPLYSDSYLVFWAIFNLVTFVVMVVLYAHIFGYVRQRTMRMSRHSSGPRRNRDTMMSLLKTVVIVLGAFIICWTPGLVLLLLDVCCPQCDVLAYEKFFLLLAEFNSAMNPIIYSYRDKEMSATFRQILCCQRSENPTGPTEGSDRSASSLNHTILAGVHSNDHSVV
structure (smiles),measurement,setting,value
"CCCCCCCC/C=C\CCCCCCCC1OCC(COP([O-])(O)=S)O1.[K+] (stereo not drawn) [Analog 14, 2-Heptadec-8-enyl-(1,3)dioxolan-4yl methyldipotassium thiophosphate]",LPA2 effect in words,[1]; *transient,almost full agonist
same,EC50,"[1]; LPA2 EC50, *transient",34 nM
same,Emax,"[1]; RH7777, read-out: RH-LPA2 cells maximal response",~74%
same,EC50,"[1]; RH-LPA2 cells EC50, compound alone",639 nM
same,RH-LPA2 cells effect of compound alone,[1]; compound alone,stimulatory effect. Its maximal
same,LPA3 effect in words,[2],Partial agonist
same,EC50,[2]; read-out: LPA3 EC50,639 nM
same,EC50,[3]; LPA1 EC50,981 nM
same,Emax,"[3]; RH7777, read-out: RH-LPA1 cells maximal response",~50%
same,EC50,"[3]; RH-LPA1 cells EC50, compound alone",2170 nM
same,LPA1 effect in words,[3],Partial agonist
same,RH-LPA1 cells effect of compound alone,[3]; compound alone,stimulatory effect. Its maximal
same,EC50,"[4]; Homo sapiens, PC-3, compound alone",1370 nM
same,Emax,"[4]; Homo sapiens, PC-3, of the LPA-alone max. response, read-out: PC3 cells maximal response",~86%
same,PC3 cells effect of compound alone,[4]; compound alone,stimulatory effect. Its maximal
CCCCCCCCNC(=O)[C@@H](COP(=O)(O)O)NC(=O)CCCCCCC [Cpd 19b],LPA2 agonist/antagonist activity in words,[1],no effect
same,LPA3 agonist/antagonist activity in words,[2],true LPA3 receptor specific antagonist
same,Ki,"[2]; read-out: LPA3 (Ki), Table 5",489 nM
same,IC50,"[2]; read-out: LPA3 IC50, Table 5",935 nM
same,LPA1 agonist/antagonist activity in words,[3],no effect
same,PPARγ activation in words,[5],no effect
"CCCCCCCC/C=C\CCCCCCCC1OCC(COP(=O)([O-])O)O1.[K+] (stereo not drawn) [Analog 13, 2-Heptadec-8-enyl-(1,3)dioxolan-4yl methyl dipotassium phosphate]",LPA2 effect in words,[1]; *transient,full agonist
same,EC50,"[1]; LPA2 EC50, *transient",68 nM
same,IC50,"[1]; RH-LPA2 cells IC50, inhibition of 200 nM LPA response",460 nM
same,IC50,"[1]; RH-LPA2 cells IC50, inhibition of 300 nM LPA response",777 nM
same,IC50,[2]; [7],527 nM
same,IC50,"[4]; Homo sapiens, PC-3, read-out: PC3 cells IC50",1500 nM
same,IC50,"[4]; read-out: PC3 cells IC50, listed as 18:1 Δ 9 acetal phosphate",1040 nM
CCCCCCCCc1ccc(CCCCCCCOP(O)(O)=S)cc1,EC50,"[1]; LPA2 EC50, Table 4",6060 nM
same,LPA2 effect in words,[1]; Table 4,full agonist
same,EC50,[2],858 nM
same,LPA3 effect in words,[2],Partial agonist
same,EC50,[3]; LPA1 EC50,4830 nM
same,LPA1 effect in words,[3],Partial agonist
CCCCCCCCOC[C@@H](COP(=O)(O)O)OCCCCCCCC [Cpd 12a],LPA2 effect in words,[1]; *transient,Weak inhibition(?) *transient
same,Ki,"[2]; read-out: LPA3 (Ki), Table 5",50 nM
same,IC50,[2]; [7],143 nM
same,IC50,"[2]; read-out: LPA3 IC50, Table 5",143 nM
same,Ki,[3]; Table 5,486 nM
same,IC50,"[3]; read-out: LPA1 IC50, 200 nM LPA",1580 nM
same,IC50,"[3]; read-out: LPA1 IC50, Table 5",1580 nM
CCCCCCCCc1ccc(CCCCCCCOP(=O)(O)O)cc1,LPA2 effect in words,[1]; Table 4,Weak antagonist
same,IC50,[2],1760 nM
same,EC50,[3],21500 nM
same,LPA1 effect in words,[3],Partial agonist
"CCCCCCCCOC[C@H](COP(=O)(O)O)OCCCCCCCC [Cpd 12b, (2R)-APA 8:0]",LPA2 effect in words,[1]; *transient,Partial agonist
same,EC50,"[1]; LPA2 EC50, *transient",2530 nM
same,LPA3 agonist/antagonist activity in words,[2],agonists; also recorded: Enantiospecific activation
same,Emax,"[2]; RH7777, read-out: LPA3 (Emax)",109%
same,LPA3 effect in words,[2],Full agonist
same,EC50,[2]; read-out: LPA3 EC50,164 nM
same,EC50,"[2]; read-out: LPA3 EC50, Table 5",164 nM
same,LPA1 agonist/antagonist activity in words,[3],agonists; also recorded: Enantiospecific activation
same,Emax,"[3]; RH7777, read-out: LPA1 (Emax)",57%
same,LPA1 effect in words,[3],Partial agonist
same,EC50,[3]; read-out: LPA1 EC50,3260 nM
same,EC50,"[3]; read-out: LPA1 EC50, Table 5, PA 8:0 analogs",3260 nM
CCCCCCCCc1ccc(CCCCCCC2OCC(COP([O-])(O)=S)O2)cc1.[K+] (stereo not drawn) [Analog 15],IC50,[1],> 30000 nM
same,LPA2 agonist/antagonist activity in words,[1],no effect
same,EC50,"[1]; LPA2 (nM) EC50, Table 1",> 30000 nM
same,EC50,[2],> 30000 nM
same,IC50,[2],504 nM
same,LPA3 agonist/antagonist activity in words,[2],sub-type selective LPA3 antagonist
same,LPA1 agonist/antagonist activity in words,[3],no effect
same,EC50,"[3]; LPA1 (nM) EC50, Table 1",> 30000 nM
CCCCCCCCNC(=O)[C@H](COP(=O)(O)O)NC(=O)CCCCCCC [Cpd 19a],LPA2 agonist/antagonist activity in words,[1],no effect
same,LPA3 agonist/antagonist activity in words,[2],selective LPA3 antagonist
same,Ki,"[2]; read-out: LPA3 (Ki), Table 5",196 nM
same,IC50,"[2]; read-out: LPA3 IC50, Table 5",414 nM
same,LPA1 agonist/antagonist activity in words,[3],no effect
same,PPARγ activation in words,[5],agonist of PPARγ
"CCCCCCCC(=O)OC[C@@H](COP(=O)(O)O)OC(=O)CCCCCCC [Cpd 7a, (2S)-PA 8:0]",LPA2 agonist/antagonist activity in words,[1],no effect
same,LPA3 agonist/antagonist activity in words,[2],subtype selective antagonism
same,LPA1 agonist/antagonist activity in words,[3],subtype selective antagonism
same,Ki,[3]; Table 5,221 nM
same,IC50,"[3]; read-out: LPA1 IC50, Table 5",433 nM
CCCCCCCCC=CCCCCCCCC1OCC(COP(=O)([O-])O)O1.[K+] (mixture of isomers) [Analog 13],LPA2 agonist/antagonist activity in words,[1],inhibited LPA1-3 receptors
same,IC50,"[1]; read-out: LPA2 IC50, Table 3",> 30000 nM
same,ATX (% inhib.),[6],30%
same,IC50,[6],141 nM
same,LPA3 agonist/antagonist activity in words,[2],LPA1/3 antagonist activity
same,Ki,"[2]; read-out: LPA3 (Ki), Table 3",548 nM
same,EC50,"[2]; read-out: LPA3 EC50, Table 3",> 30000 nM
same,IC50,"[2]; read-out: LPA3 IC50, Table 3",527 nM
same,PPARγ,[5],Agonist
"CCCCCCCC/C=C\CCCCCCCC(=O)OC[C@@H](O)COP(=O)(O)O [Oleoyl-LPA, reference compound]",LPA2 agonist/antagonist activity in words,[1],agonist of LPA1-3
same,LPA3 agonist/antagonist activity in words,[2],agonist of LPA1-3
same,LPA1 agonist/antagonist activity in words,[3],agonist of LPA1-3
CCCCCCCC/C=C\CCCCCCCC1OCC(COP([O-])(O)=S)O1.[K+] (stereo not drawn) [Analog 6],LPA2 agonist/antagonist activity in words,[1],pan-agonists
same,EC50,"[1]; LPA2 (nM) EC50, Table 1",34 nM
same,EC50,[2],639 nM
same,IC50,[2],> 30000 nM
same,LPA3 agonist/antagonist activity in words,[2],pan-agonists
same,IC50,[3],> 30000 nM
same,LPA1 agonist/antagonist activity in words,[3],pan-agonists
same,EC50,"[3]; LPA1 (nM) EC50, Table 1",981 nM
CCCCCCCCc1ccc(CCCCCCC2OCC(COP(=O)(O)O)O2)cc1 (stereo not drawn) [Analog 14],IC50,[1],> 30000 nM
same,EC50,"[1]; LPA2 (nM) EC50, Table 1",> 30000 nM
same,EC50,[2],692 nM
same,IC50,[2],> 30000 nM
same,IC50,[3],4660 nM
same,EC50,"[3]; LPA1 (nM) EC50, Table 1",> 30000 nM
"CCCCCCCC(=O)OC[C@H](COP(O)(O)=S)OC(=O)CCCCCCC [Cpd 8b, (2R)-TPA 8:0]",LPA2 agonist/antagonist activity in words,[1],partial agonist
same,Emax,"[1]; RH7777, read-out: LPA2 (Emax)",58%
same,EC50,"[1]; read-out: LPA2 EC50, Table 5",6330 nM
same,selectivity for LPA3 over LPA1,[2],75 fold
same,IC50,"[2]; read-out: LPA3 IC50, Table 5",11 nM
same,Ki,[2]; read-out: LPA3 Ki,5 nM
same,LPA1 agonist/antagonist activity in words,[3],more potent antagonist
same,Ki,[3]; Table 5,360 nM
same,IC50,"[3]; read-out: LPA1 IC50, Table 5",686 nM
CCCCCCCCC=CCCCCCCCC1OCC(COP(=O)([O-])O)O1.[K+] (stereo not drawn) [Analog 37],EC50,"[1]; read-out: LPA2 EC50, Table 3",> 10000 nM
same,IC50,"[1]; read-out: LPA2 IC50, Table 3",> 30000 nM
same,ATX (% inhib.),[6],46%
same,IC50,[6],238 nM
same,LPA3 agonist/antagonist activity in words,[2],LPA3 antagonists
same,Ki,"[2]; read-out: LPA3 (Ki), Table 3",241 nM
same,EC50,"[2]; read-out: LPA3 EC50, Table 3",> 30000 nM
same,IC50,"[2]; read-out: LPA3 IC50, Table 3",484 nM
same,PPARγ,[5],Agonist
